Laboratory results: patent US20240245793A1, “PSD-95 INHIBITORS AND USES THEREOF” (priority 2021, published 2024)
Like-named read-outs stand apart in the source and are kept apart here. Values belong to the molecule of their own block, whether it stands above or below them. Starred links: 1 amine or outer side, 2 acyl side, 3 side chain; linkers in the order of their positions; H or OH if unused. Positions of bridges follow the written chain, without caps; N, C: chain ends. Residues, ends and D or L forms follow the SMILES beside them. Chains are numbered I, II in the order given. CO(CH2CH2O)5CH2CH2CO = O=C(CCOCCOCCOCCOCCOCCC(=O)[*:2])[*:1]

Key:
PDZ1-2 of PSD-95 = PDZ1-2 of PSD-95 (Homo sapiens, UniProt P78352); test: Fluorescence polarization (FP) competition assay, affinity to PDZ1-2 of PSD-95; assay type: binding; conditions: mean ± SEM
Procedure: First, a saturation binding curve was obtained to determine KD values for the interaction between a fluorescent dimeric probe and PDZ1-2 of PSD-95. Increasing concentrations of PDZ1-2 (0.015-30 nM) were added to a constant concentration of the probe (0.5 nM). The fluorescence polarization (FP) of the sample was measured at excitation/emission wavelength of 635/670 nm and the generated FP values were fitted to a one site binding model using the software GraphPad Prism. […] The FP values were fitted to a one site competition (variable slope) model in GraphPad prism. The resulting IC50 values were converted to Ki values as described previously by Nikolovska-Coleska et al., Anal. Biochem., 2004, 332, 261).

plasmin = molecular target: T1, plasmin (Homo sapiens, UniProt P00747); test: In vitro plasmin stability assay; assay type: in vitro ADME; conditions: isolated enzyme plasmin
T1 construct: Tissue plasminogen factor (tPA), which generates plasmin from plasminogen
Procedure: At selected time points during the incubation, the ligands were extracted from 80 μL of assay matrix by treatment with 80 μL of 50% acetonitrile (ACN). The samples were filtered and analysed by UPLC to determine the amount of ligand remaining. LC-MS analysis was performed to confirm ligand integrity and identify cleavage sites.

[1] = OPEG4 dimers without CPP, n ≥ 3 (Table 4, FIG. 1)
[2] = dimeric ligands fused to L-TAT and L-Arg9, n ≥ 3 (Table 5, FIG. 2)

T1 sequence (P00747 581-810 limits assumed, species assumed): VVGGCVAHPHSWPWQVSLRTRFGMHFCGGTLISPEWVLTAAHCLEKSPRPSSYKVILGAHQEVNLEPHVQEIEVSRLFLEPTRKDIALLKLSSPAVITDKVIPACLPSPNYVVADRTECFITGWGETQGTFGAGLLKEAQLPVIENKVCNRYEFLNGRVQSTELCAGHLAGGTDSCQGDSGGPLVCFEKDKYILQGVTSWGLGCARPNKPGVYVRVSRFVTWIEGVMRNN
T1 sequence (P00747 97-580 partner limits assumed, species assumed): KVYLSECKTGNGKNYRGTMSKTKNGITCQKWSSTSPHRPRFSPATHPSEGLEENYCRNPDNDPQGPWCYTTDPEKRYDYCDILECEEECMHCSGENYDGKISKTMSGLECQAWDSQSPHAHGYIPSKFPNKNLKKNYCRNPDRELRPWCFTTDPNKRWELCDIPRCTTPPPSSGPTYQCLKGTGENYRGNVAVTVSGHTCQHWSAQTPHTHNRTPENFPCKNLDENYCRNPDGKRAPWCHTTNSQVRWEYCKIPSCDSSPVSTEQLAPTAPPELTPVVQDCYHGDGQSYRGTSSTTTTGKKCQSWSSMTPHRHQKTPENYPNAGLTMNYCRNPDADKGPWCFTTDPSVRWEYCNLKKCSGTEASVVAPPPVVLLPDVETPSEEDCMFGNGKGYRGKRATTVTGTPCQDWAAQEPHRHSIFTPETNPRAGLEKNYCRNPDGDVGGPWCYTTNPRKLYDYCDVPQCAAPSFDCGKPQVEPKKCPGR
PDZ1-2 of PSD-95, sequence (P78352 61-249 limits assumed): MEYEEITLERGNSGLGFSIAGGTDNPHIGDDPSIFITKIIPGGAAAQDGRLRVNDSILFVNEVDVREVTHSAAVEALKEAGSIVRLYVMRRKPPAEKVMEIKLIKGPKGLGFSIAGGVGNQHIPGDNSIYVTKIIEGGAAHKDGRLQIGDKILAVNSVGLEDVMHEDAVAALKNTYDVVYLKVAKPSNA

Ki (PDZ1-2 of PSD-95; [1]): 11.1 ± 0.3 nM
SMILES: CC(C)C[C@H](NC(=O)[C@@H](NC(=O)[C@H](CCC(=O)O)NC(=O)[C@H](CCCCN)NC(=O)CCOCCOCCOCCOCCOCCC(=O)N[C@@H](CCCCN)C(=O)N[C@@H](CCC(=O)O)C(=O)N[C@H](C(=O)N[C@@H](CC(C)C)C(=O)N[C@H](C(=O)O)C(C)C)[C@@H](C)O)[C@@H](C)O)C(=O)N[C@H](C(=O)O)C(C)C [Compound 2, OPEG4-(KETLV)2]

Ki (PDZ1-2 of PSD-95; [1]): 14.4 ± 0.4 nM
SMILES: CC(C)[C@H](NC(=O)[C@@H](NC(=O)[C@@H](NC(=O)[C@H](CCC(=O)O)NC(=O)[C@H](CCCCN)NC(=O)CCOCCOCCOCCOCCOCCC(=O)N[C@@H](CCCCN)C(=O)N[C@@H](CCC(=O)O)C(=O)N[C@H](C(=O)N[C@H](C(=O)N[C@H](C(=O)O)C(C)C)[C@@H](C)O)[C@@H](C)O)[C@@H](C)O)[C@@H](C)O)C(=O)O [Compound 3, OPEG4-(KETTV)2]

Ki (PDZ1-2 of PSD-95; [1]): 15.8 ± 1.2 nM
SMILES: CC(C)[C@H](NC(=O)[C@@H](NC(=O)[C@@H](NC(=O)[C@H](CCC(=O)O)NC(=O)[C@H](CCCCN)NC(=O)CCOCCOCCOCCOCCOCCC(=O)N[C@@H](CCCCN)C(=O)N[C@@H](CCC(=O)O)C(=O)N[C@H](C(=O)N[C@H](C(=O)N[C@H](C(=O)O)C(C)C)C(C)C)[C@@H](C)O)[C@@H](C)O)C(C)C)C(=O)O [Compound 4, OPEG4-(KETVV)2] (I: KETVV-OH / II: KETVV-OH; linker I:N-II:N via CO(CH2CH2O)5CH2CH2CO; C-terminus assumed)

SMILES: CC(=O)N[C@@H](Cc1ccc(O)cc1)C(=O)NCC(=O)N[C@@H](CCCNC(=N)N)C(=O)N[C@@H](CCCCN)C(=O)N[C@@H](CCCCN)C(=O)N[C@@H](CCCNC(=N)N)C(=O)N[C@@H](CCCNC(=N)N)C(=O)N[C@@H](CCC(N)=O)C(=O)N[C@@H](CCCNC(=N)N)C(=O)N[C@@H](CCCNC(=N)N)C(=O)N[C@@H](CCCNC(=N)N)C(=O)N(CCOCCOCCC(=O)N[C@@H](CCCCN)C(=O)N[C@@H](CCC(=O)O)C(=O)N[C@H](C(=O)N[C@@H](CC(C)C)C(=O)N[C@H](C(=O)O)C(C)C)[C@@H](C)O)CCOCCOCCC(=O)N[C@@H](CCCCN)C(=O)N[C@@H](CCC(=O)O)C(=O)N[C@H](C(=O)N[C@@H](CC(C)C)C(=O)N[C@H](C(=O)O)C(C)C)[C@@H](C)O [Compound 11]
Ki (PDZ1-2 of PSD-95; [2]): 5.4 ± 0.9 nM | half-life (plasmin; read-out: T1/2): 5.77 ± 1.75 h

SMILES: CC(=O)N[C@@H](Cc1ccc(O)cc1)C(=O)NCC(=O)N[C@@H](CCCNC(=N)N)C(=O)N[C@@H](CCCCN)C(=O)N[C@@H](CCCCN)C(=O)N[C@@H](CCCNC(=N)N)C(=O)N[C@@H](CCCNC(=N)N)C(=O)N[C@@H](CCC(N)=O)C(=O)N[C@@H](CCCNC(=N)N)C(=O)N[C@@H](CCCNC(=N)N)C(=O)N[C@@H](CCCNC(=N)N)C(=O)N(CCOCCOCCC(=O)N[C@@H](CCCCN)C(=O)N[C@@H](CCC(=O)O)C(=O)N[C@H](C(=O)N[C@H](C(=O)N[C@H](C(=O)O)C(C)C)[C@@H](C)O)[C@@H](C)O)CCOCCOCCC(=O)N[C@@H](CCCCN)C(=O)N[C@@H](CCC(=O)O)C(=O)N[C@H](C(=O)N[C@H](C(=O)N[C@H](C(=O)O)C(C)C)[C@@H](C)O)[C@@H](C)O [Compound 13]
Ki (PDZ1-2 of PSD-95; [2]): 6.5 ± 0.7 nM | half-life (plasmin; read-out: T1/2): 9.5 ± 3 h

SMILES: CC(=O)N[C@@H](Cc1ccc(O)cc1)C(=O)NCC(=O)N[C@@H](CCCNC(=N)N)C(=O)N[C@@H](CCCCN)C(=O)N[C@@H](CCCCN)C(=O)N[C@@H](CCCNC(=N)N)C(=O)N[C@@H](CCCNC(=N)N)C(=O)N[C@@H](CCC(N)=O)C(=O)N[C@@H](CCCNC(=N)N)C(=O)N[C@@H](CCCNC(=N)N)C(=O)N[C@@H](CCCNC(=N)N)C(=O)N(CCOCCOCCC(=O)N[C@@H](CCCCN)C(=O)N[C@@H](CCC(=O)O)C(=O)N[C@H](C(=O)N[C@H](C(=O)N[C@H](C(=O)O)C(C)C)C(C)C)[C@@H](C)O)CCOCCOCCC(=O)N[C@@H](CCCCN)C(=O)N[C@@H](CCC(=O)O)C(=O)N[C@H](C(=O)N[C@H](C(=O)N[C@H](C(=O)O)C(C)C)C(C)C)[C@@H](C)O [Compound 15]
Ki (PDZ1-2 of PSD-95; [2]): 2.1 ± 0.2 nM | half-life (plasmin; read-out: T1/2): 6.42 ± 2.17 h

half-life at 100 μM (plasmin): 0.817 ± 0.15 h
SMILES: CC[C@H](C)[C@H](NC(=O)CCOCCOCCN(CCOCCOCCC(=O)N[C@H](C(=O)N[C@@H](CCC(=O)O)C(=O)N[C@H](C(=O)N[C@@H](CC(=O)O)C(=O)N[C@H](C(=O)O)C(C)C)[C@@H](C)O)[C@@H](C)CC)C(=O)[C@H](CCCCN)NC(=O)[C@H](CO)NC(=O)[C@H](Cc1c[nH]cn1)NC(=O)[C@H](C)NC(=O)[C@H](Cc1c[nH]cn1)NC(=O)[C@H](C)NC(=O)[C@H](CCC(N)=O)NC(=O)[C@H](CCCCN)NC(=O)[C@H](CCCNC(=N)N)NC(=O)[C@@H](NC(=O)[C@H](CCCNC(=N)N)NC(=O)[C@H](CCCNC(=N)N)NC(=O)[C@H](CCCNC(=N)N)NC(=O)[C@H](CC(C)C)NC(=O)[C@@H](NC(=O)[C@@H](NC(=O)[C@H](CC(C)C)NC(=O)[C@H](CC(C)C)NC(C)=O)[C@@H](C)CC)[C@@H](C)CC)[C@@H](C)CC)C(=O)N[C@@H](CCC(=O)O)C(=O)N[C@H](C(=O)N[C@@H](CC(=O)O)C(=O)N[C@H](C(=O)O)C(C)C)[C@@H](C)O [Compound 52]

half-life at 100 μM (plasmin): 0.217 ± 0.0667 h
SMILES: CC[C@H](C)[C@H](NC(=O)CCOCCOCCN(CCOCCOCCC(=O)N[C@H](C(=O)N[C@@H](CCC(=O)O)C(=O)N[C@H](C(=O)N[C@@H](CC(=O)O)C(=O)N[C@H](C(=O)O)C(C)C)[C@@H](C)O)[C@@H](C)CC)C(=O)[C@H](C)NC(=O)[C@H](CC(C)C)NC(=O)[C@H](CCCCN)NC(=O)[C@H](CC(C)C)NC(=O)[C@H](C)NC(=O)[C@H](C)NC(=O)[C@H](CCCCN)NC(=O)[C@H](CC(C)C)NC(=O)[C@H](C)NC(=O)[C@H](CCCCN)NC(=O)[C@H](CC(C)C)NC(=O)[C@H](C)NC(=O)[C@H](CC(C)C)NC(=O)[C@H](CCCCN)NC(=O)[C@H](CC(C)C)NC(=O)[C@H](C)NC(=O)[C@H](CC(C)C)NC(=O)[C@H](CCCCN)NC(C)=O)C(=O)N[C@@H](CCC(=O)O)C(=O)N[C@H](C(=O)N[C@@H](CC(=O)O)C(=O)N[C@H](C(=O)O)C(C)C)[C@@H](C)O [Compound 54]

half-life at 100 μM (plasmin): 15.2 h
SMILES: CC[C@H](C)[C@H](NC(=O)CCOCCOCCN(CCOCCOCCC(=O)N[C@H](C(=O)N[C@@H](CCC(=O)O)C(=O)N[C@H](C(=O)N[C@@H](CC(=O)O)C(=O)N[C@H](C(=O)O)C(C)C)[C@@H](C)O)[C@@H](C)CC)C(=O)[C@H](Cc1ccccc1)NC(=O)[C@H](CCC(N)=O)NC(=O)CNC(=O)[C@H](CCCNC(=N)N)NC(=O)[C@H](CC(C)C)NC(=O)[C@H](CC(C)C)NC(=O)[C@H](CCCNC(=N)N)NC(=O)[C@H](CC(C)C)NC(=O)[C@H](Cc1ccc(O)cc1)NC(=O)[C@@H](NC(=O)[C@H](CC(C)C)NC(=O)[C@@H]1CCCN1C(C)=O)[C@@H](C)CC)C(=O)N[C@@H](CCC(=O)O)C(=O)N[C@H](C(=O)N[C@@H](CC(=O)O)C(=O)N[C@H](C(=O)O)C(C)C)[C@@H](C)O [Compound 56]

half-life at 100 μM (plasmin): 24 h
SMILES: CC[C@@H](C)[C@@H](NC(=O)[C@@H](CC(C)C)NC(=O)[C@H]1CCCN1C(C)=O)C(=O)N[C@H](Cc1ccc(O)cc1)C(=O)N[C@H](CC(C)C)C(=O)N[C@H](CCCNC(=N)N)C(=O)N[C@H](CC(C)C)C(=O)N[C@H](CC(C)C)C(=O)N[C@H](CCCNC(=N)N)C(=O)NCC(=O)N[C@H](CCC(N)=O)C(=O)N[C@H](Cc1ccccc1)C(=O)N(CCOCCOCCC(=O)N[C@H](C(=O)N[C@@H](CCC(=O)O)C(=O)N[C@H](C(=O)N[C@@H](CC(=O)O)C(=O)N[C@H](C(=O)O)C(C)C)[C@@H](C)O)[C@@H](C)CC)CCOCCOCCC(=O)N[C@H](C(=O)N[C@@H](CCC(=O)O)C(=O)N[C@H](C(=O)N[C@@H](CC(=O)O)C(=O)N[C@H](C(=O)O)C(C)C)[C@@H](C)O)[C@@H](C)CC [Compound 58]

SMILES: CC[C@H](C)[C@H](NC(=O)CCOCCOCCN(CCOCCOCCC(=O)N[C@H](C(=O)N[C@@H](CCC(=O)O)C(=O)N[C@H](C(=O)N[C@@H](CC(=O)O)C(=O)N[C@H](C(=O)O)C(C)C)[C@@H](C)O)[C@@H](C)CC)C(=O)[C@@H]1CC(=O)NC[C@H](NC(C)=O)C(=O)N[C@@H](CCCCN)C(=O)N[C@@H](C)C(=O)N2CCC[C@H]2C(=O)N[C@@H](CCC(=O)O)C(=O)N[C@@H]([C@@H](C)O)C(=O)N[C@@H](C)C(=O)N[C@@H](CC(C)C)C(=O)N1)C(=O)N[C@@H](CCC(=O)O)C(=O)N[C@H](C(=O)N[C@@H](CC(=O)O)C(=O)N[C@H](C(=O)O)C(C)C)[C@@H](C)O [Compound 60]
half-life at 100 μM (plasmin; read-out: T1/2): 24 h

half-life at 100 μM (plasmin): 24 h
SMILES: CC[C@H](C)[C@H](NC(=O)CCOCCOCCN(CCOCCOCCC(=O)N[C@H](C(=O)N[C@@H](CCC(=O)O)C(=O)N[C@H](C(=O)N[C@@H](CC(=O)O)C(=O)N[C@H](C(=O)O)C(C)C)[C@@H](C)O)[C@@H](C)CC)C(=O)[C@H](CCCCN)NC(=O)CCCNC(=O)CC[C@@H]1NC(=O)[C@@H](CCCNC(=N)N)NC(=O)[C@H](CCCNC(=N)N)NC(=O)[C@@H](CCCNC(=N)N)NC(=O)[C@H](CCCNC(=N)N)NC(=O)[C@H](Cc2ccc3ccccc3c2)NC(=O)[C@@H](Cc2ccccc2)NC(=O)[C@H](Cc2ccccc2)NC1=O)C(=O)N[C@@H](CCC(=O)O)C(=O)N[C@H](C(=O)N[C@@H](CC(=O)O)C(=O)N[C@H](C(=O)O)C(C)C)[C@@H](C)O [Compound 62]
